Earlier results, collected in patent US20030232875A1, “Bicyclic pyrrolyl amides as glucogen phosphorylase inhibitors” (priority 2000, published 2003).

Columns and labels:
[1] = test system: hepatocytes; settings: in hepatocytes
[2] = test system: db/db and ob/ob mice; settings: db/db and ob/ob mice following treatment
[3] = test system: conscious dogs; settings: following a glucagon challenge

| SMILES | glucagon stimulated glycogenolysis [1] | glucose output [1] | plasma glucose concentration [2] | arterial plasma glucose levels [3] | hepatic glucose output [3] |
| --- | --- | --- | --- | --- | --- |
| CN(C)C(=O)[C@H](O)[C@H](Cc1ccccc1)NC(=O)c1cc2cc(Cl)ccc2[nH]1 [CP91149] | reduce | reduce | reduced, in a dose related manner | – | – |
| O=C(N[C@@H](Cc1ccc(F)cc1)C(=O)N1CCC(O)CC1)c1cc2cc(Cl)ccc2[nH]1 [CP320626] | reduce | reduce | reduced, in a dose related manner | – | – |
| CCN1C(C)=C(C(=O)OC(C)C)C(c2ccccc2Cl)C2=C1COC2=O (centres unmarked) [Bay R 3401] | – | – | – | reduced significantly | reduced significantly |
